Test results published in patent US11873288B2, “Inhibitors for soluble epoxide hydrolase (sEH) and fatty acid amide hydrolase (FAAH)” (The Regents of the University of California, priority 2016, dated 2024).

Key:
[1] = target: T1, MAGL (Homo sapiens, UniProt Q99685); experiment: serine hydrolase selectivity panel: MAGL
T1 sequence (Q99685 1-303): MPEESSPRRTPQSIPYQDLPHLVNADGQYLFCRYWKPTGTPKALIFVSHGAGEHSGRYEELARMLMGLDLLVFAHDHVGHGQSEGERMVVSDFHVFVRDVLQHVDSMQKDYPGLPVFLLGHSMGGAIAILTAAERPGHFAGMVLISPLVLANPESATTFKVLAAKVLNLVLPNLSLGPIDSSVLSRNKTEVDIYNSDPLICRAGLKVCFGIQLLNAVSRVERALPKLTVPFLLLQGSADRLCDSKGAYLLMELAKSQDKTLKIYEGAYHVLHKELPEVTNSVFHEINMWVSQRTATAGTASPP

[2] = target: T2, FAAH (Felis catus, UniProt A0ABI8A862); details: read-out: FAAH IC50, Cat; brain microsome preparations
T2 sequence (A0ABI8A862 1-541): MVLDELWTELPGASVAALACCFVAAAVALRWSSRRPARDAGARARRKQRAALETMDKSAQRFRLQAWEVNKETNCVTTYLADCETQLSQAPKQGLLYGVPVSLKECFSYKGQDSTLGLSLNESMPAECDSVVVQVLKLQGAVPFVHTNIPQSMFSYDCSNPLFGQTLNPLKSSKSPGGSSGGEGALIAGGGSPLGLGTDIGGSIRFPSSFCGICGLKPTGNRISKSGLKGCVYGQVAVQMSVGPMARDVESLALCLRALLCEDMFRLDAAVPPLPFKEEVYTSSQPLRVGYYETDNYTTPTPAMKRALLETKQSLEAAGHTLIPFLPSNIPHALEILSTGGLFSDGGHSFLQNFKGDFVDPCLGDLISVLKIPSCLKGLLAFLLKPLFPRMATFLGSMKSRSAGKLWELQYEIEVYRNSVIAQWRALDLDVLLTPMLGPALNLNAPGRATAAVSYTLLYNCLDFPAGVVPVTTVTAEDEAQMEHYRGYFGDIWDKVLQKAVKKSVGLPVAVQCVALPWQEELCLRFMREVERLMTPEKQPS

[3] = target: T3, hsEH (Homo sapiens, UniProt P34913); experiment: human sEH inhibition (hsEH IC50); type: biochemical
T3 sequence (P34913 1-555): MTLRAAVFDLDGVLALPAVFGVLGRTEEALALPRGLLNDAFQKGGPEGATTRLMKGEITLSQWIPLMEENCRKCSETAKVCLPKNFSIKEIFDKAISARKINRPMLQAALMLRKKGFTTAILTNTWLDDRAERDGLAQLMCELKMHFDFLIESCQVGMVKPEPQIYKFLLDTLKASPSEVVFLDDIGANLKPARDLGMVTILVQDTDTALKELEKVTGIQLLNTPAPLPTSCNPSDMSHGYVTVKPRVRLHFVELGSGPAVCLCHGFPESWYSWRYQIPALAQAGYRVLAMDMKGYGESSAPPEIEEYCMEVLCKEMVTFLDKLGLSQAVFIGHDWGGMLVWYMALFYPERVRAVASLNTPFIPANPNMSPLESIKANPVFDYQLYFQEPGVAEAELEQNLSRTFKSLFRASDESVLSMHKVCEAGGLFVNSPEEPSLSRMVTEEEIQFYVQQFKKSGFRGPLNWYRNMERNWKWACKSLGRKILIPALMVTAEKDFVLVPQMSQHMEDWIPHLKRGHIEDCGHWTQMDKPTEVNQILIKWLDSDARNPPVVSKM

[4] = target: T4, hFAAH (Homo sapiens, UniProt O00519); experiment: hFAAH inhibition kinetics (KD, k2); type: biochemical
T4 construct: made in house
T4 sequence (O00519 1-579): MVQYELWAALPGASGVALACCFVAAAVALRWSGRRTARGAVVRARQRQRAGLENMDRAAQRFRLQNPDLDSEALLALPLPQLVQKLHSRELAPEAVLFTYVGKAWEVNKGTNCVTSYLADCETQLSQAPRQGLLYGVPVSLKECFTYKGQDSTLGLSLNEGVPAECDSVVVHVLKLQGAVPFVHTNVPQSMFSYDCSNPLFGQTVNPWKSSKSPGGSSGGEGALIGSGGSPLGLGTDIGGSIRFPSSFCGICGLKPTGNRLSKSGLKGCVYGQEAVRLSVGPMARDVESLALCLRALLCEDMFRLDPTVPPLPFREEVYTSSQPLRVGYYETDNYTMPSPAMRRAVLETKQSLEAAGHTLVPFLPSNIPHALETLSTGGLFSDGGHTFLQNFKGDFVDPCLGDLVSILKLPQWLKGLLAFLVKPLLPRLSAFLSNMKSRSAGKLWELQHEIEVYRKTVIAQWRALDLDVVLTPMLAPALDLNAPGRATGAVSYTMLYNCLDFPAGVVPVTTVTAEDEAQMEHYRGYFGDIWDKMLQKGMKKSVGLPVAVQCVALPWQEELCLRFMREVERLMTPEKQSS

[5] = target: T4, hFAAH; experiment: recombinant FAAH enzyme with fluorescent substrate OMP (hFAAH IC50, screen); type: biochemical
[6] = target: T5, sEH (Rattus norvegicus, UniProt P80299); experiment: biochemical
T5 sequence (P80299 1-554): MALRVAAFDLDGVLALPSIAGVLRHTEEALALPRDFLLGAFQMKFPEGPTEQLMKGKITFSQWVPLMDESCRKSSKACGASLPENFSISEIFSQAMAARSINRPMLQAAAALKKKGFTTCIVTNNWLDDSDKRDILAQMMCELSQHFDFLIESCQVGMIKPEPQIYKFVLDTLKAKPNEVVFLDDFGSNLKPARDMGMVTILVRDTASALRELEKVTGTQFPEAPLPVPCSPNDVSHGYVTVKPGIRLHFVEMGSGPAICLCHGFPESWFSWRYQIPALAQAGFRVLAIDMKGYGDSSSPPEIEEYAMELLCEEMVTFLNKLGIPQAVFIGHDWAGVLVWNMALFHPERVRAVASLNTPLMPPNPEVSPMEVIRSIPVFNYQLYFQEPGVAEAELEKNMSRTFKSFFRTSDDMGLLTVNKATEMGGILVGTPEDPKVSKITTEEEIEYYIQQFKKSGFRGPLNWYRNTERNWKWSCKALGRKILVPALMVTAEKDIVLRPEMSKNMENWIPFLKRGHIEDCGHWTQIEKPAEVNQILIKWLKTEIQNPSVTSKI

Compound	IC50 [1] [nM]	IC50 [2] [nM]	IC50 [3] [nM]	Kd [4] [nM]	hFAAH k2 [4] [min⁻¹]	IC50 [5] [nM]	further results
O=C(Nc1ccc(OC(F)(F)F)cc1)N[C@H]1CC[C@H](Oc2ccc(C(=O)OCc3ccccc3)cc2)CC1 [Compound A-14, benzyl 4-((trans-4-(3-(4-(trifluoromethoxy)phenyl)ureido)cyclohexyl)oxy) benzoate]	> 10000	> 1000					
O=C(Nc1ccc(OC(F)(F)F)cc1)N[C@H]1CC[C@H](Oc2ccc(O)cc2)CC1 [Compound A-21, trans-1-(−4-(4-hydroxy-phenoxy)cyclohexyl)-3-(4-(trifluoromethoxy)phenyl)urea]	> 10000	130					
COc1ccc(NC(=O)N2CCC(Cc3cnc4ccccc4c3)CC2)cc1 [Compound B-5, N-(4-methoxyphenyl)-4-(quinolin-3-ylmethyl)piperidine-1-carboxamide]			130 ± 40	24 ± 4	0.37 ± 0.03	32	increase of activity/potency towards sEH [3]: 4 fold
COc1ccc(NC(=O)N2CCC(Cc3ccc4ccccc4n3)CC2)cc1 [Compound B-7, N-(4-methoxyphenyl)-4-(quinolin-2-ylmethyl)piperidine-1-carboxamide]				100 ± 40	0.28 ± 0.04		
COc1ccc(NC(=O)N2CCC(Cc3ccc4ccccc4c3)CC2)cc1 [Compound B-8, N-(4-methoxyphenyl)-4-(naphthalen-2-ylmethyl)piperidine-1-carboxamide]			120 ± 30	18 ± 4	0.26 ± 0.03	7.4	
COc1ccc(NC(=O)N2CCC(Cc3cccc(Oc4ccc(C(F)(F)F)cn4)c3)CC2)cc1 [Compound B-9, N-(4-methoxyphenyl)-4-(3-((5-(trifluoromethyl)pyridin-2-yl)oxy)benzyl) piperidine-1-carboxamide]				0.7 ± 0.27	0.26 ± 0.03		increase in potency towards FAAH ([5]; relative to B-5): 32 fold
COc1ccc(NC(=O)N2CCC(c3nc(-c4ccccc4)cs3)CC2)cc1 [Compound B-10, N-(4-methoxyphenyl)-4-(4-phenylthiazol-2-yl)piperidine-1-carboxamide]			570 ± 170	750 ± 20	0.55 ± 0.02	250	
O=C(Nc1ccc(C(F)(F)F)cc1F)N1CCC(Cc2cccc(Oc3ccc(C(F)(F)F)cn3)c2)CC1 [Compound B-18, N-(2-fluoro-4-(trifluoromethyl)phenyl)-4-(3-((5-(trifluoromethyl)pyridin-2-yl)oxy)benzyl)piperidine-1-carboxamide]			9			3	
O=C(Nc1cccnc1)N1CCC(Cc2cccc(Oc3ccc(C(F)(F)F)cn3)c2)CC1 [PF-3845]		< 0.1				0.4	
O=C(Nc1ccc(OC(F)(F)F)cc1)N[C@H]1CC[C@H](Oc2ccc(C(=O)O)cc2)CC1 [t-TUCB, trans-4-{4-[3-(4-trifluoromethoxyphenyl)-ureido]cyclohexyloxy}benzoic acid]	> 10000	> 1000					IC50 [6]: 54 nM
